Reference: patent publication US20230286958A1, “PLASMA KALLIKREIN INHIBITORS” (Merck Sharp & Dohme LLC, priority 2020, published 2023)

Legend:
Human plasma kallikrein = Human plasma kallikrein (Homo sapiens (Human), UniProt P03952); experiment: Kallikrein Assay (fluorogenic substrate Acetyl-K-P-R-AFC); type: biochemical; conditions: Plasma Kallikrein (PKal)
How it was run: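 Ki is derived from IC50 with the Cheng-Prusoff equation, and IC50 from the inflection point of a four-parameter logistic curve. The rate of AFC release is read with 0.5 nM purified enzyme and […] substrate at room temperature or 37 °C.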

human Factor XIa = human Factor XIa (Homo sapiens (Human), UniProt P03951); experiment: Factor XIa Assay (fluorogenic substrate GPR-AFC); type: biochemical; conditions: Factor XIa (FXIa)
Chain of human Factor XIa (P03951 388-625 limits assumed): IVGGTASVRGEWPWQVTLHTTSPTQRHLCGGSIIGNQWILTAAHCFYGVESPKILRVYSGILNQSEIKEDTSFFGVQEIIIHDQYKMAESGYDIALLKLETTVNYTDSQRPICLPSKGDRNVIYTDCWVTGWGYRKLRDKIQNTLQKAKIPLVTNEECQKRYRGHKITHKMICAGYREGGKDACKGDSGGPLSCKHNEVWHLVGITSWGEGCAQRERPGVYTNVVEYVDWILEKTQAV
Chain of human Factor XIa (P03951 19-387 partner limits assumed): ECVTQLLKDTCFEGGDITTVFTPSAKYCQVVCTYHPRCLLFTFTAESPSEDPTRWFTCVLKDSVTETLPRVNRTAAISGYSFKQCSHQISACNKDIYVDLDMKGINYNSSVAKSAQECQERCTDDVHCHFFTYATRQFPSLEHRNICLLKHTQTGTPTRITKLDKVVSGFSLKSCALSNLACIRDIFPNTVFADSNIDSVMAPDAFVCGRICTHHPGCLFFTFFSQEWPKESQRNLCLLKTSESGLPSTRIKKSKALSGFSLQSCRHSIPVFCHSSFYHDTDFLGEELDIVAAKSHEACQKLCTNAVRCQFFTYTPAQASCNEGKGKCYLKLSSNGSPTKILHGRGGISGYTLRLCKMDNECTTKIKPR

Chain of Human plasma kallikrein (P03952 391-638): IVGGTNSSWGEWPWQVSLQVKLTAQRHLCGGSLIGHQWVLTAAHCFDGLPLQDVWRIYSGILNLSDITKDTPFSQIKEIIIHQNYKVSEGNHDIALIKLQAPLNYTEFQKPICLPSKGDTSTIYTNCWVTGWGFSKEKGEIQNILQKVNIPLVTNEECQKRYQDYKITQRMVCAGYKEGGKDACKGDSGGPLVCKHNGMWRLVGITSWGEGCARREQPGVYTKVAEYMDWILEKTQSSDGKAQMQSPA
Chain of Human plasma kallikrein (P03952 20-390 partner): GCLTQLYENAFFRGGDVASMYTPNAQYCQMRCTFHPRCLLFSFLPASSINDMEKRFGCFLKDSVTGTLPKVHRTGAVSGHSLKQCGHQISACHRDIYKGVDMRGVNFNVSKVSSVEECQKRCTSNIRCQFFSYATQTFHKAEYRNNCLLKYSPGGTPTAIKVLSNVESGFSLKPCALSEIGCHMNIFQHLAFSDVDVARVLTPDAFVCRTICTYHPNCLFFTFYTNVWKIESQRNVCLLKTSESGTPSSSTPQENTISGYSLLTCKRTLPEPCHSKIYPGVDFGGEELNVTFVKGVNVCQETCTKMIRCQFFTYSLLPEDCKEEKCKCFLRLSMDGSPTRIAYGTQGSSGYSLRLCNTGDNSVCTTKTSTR

`Cc1ncc(-c2c(C(F)F)ccc(Cl)c2F)nc1C(=O)Nc1cnn(C(C)c2ccc(N3CC4CC4C3=O)nc2)c1` (single isomer, unassigned) [Example 74, 6-(3-Chloro-6-(difluoromethyl)-2-fluorophenyl)-3-methyl-N-(1-((S or R)-1-(6-((1R,5S or 1S,5R)-2-oxo-3-azabicyclo[3.1.0]hexan-3-yl)pyridin-3-yl)ethyl)-1H-pyrazol-4-yl)pyrazine-2-carboxamide] gave an IC50 (Human plasma kallikrein) of 14.6 nM and an IC50 (human Factor XIa) of 7600 nM.
In the case of `Cc1ncc(-c2c(C(F)F)ccc(Cl)c2F)nc1C(=O)Nc1cnn(C(C)c2ccc(N3CC4CC4C3=O)nc2)c1` (single isomer, unassigned) [Example 75, 6-(3-Chloro-6-(difluoromethyl)-2-fluorophenyl)-3-methyl-N-(1-((R or S)-1-(6-((1R,5S or 1S,5R)-2-oxo-3-azabicyclo[3.1.0]hexan-3-yl)pyridin-3-yl)ethyl)-1H-pyrazol-4-yl)pyrazine-2-carboxamide], the IC50 (Human plasma kallikrein) is reported as 4.8 nM and the IC50 (human Factor XIa) is reported as > 10000 nM.
For `Cc1ncc(-c2c(C(F)F)ccc(Cl)c2F)nc1C(=O)Nc1cnn(C(C)c2ccc(N3CC4CC4C3=O)nc2)c1` (single isomer, unassigned) [Example 76, 6-(3-Chloro-6-(difluoromethyl)-2-fluorophenyl)-3-methyl-N-(1-((S or R)-1-(6-((1S,5R or 1R,5S)-2-oxo-3-azabicyclo[3.1.0]hexan-3-yl)pyridin-3-yl)ethyl)-1H-pyrazol-4-yl)pyrazine-2-carboxamide], the IC50 (Human plasma kallikrein) was 43 nM and the IC50 (human Factor XIa) was > 10000 nM.
Molecule `CC(c1cnc(N2C[C@H]3C[C@H]3C2=O)c(C(F)F)c1)n1cc(NC(=O)c2cncc(-c3c(C(F)F)ccc(Cl)c3F)n2)cn1` (single isomer, unassigned) [Example 77, 6-(3-Chloro-6-(difluoromethyl)-2-fluorophenyl)-N-(1-((S or R)-1-(5-(difluoromethyl)-6-((1R,5S)-2-oxo-3-azabicyclo[3.1.0]hexan-3-yl)pyridin-3-yl)ethyl)-1H-pyrazol-4-yl)pyrazine-2-carboxamide] has an IC50 (Human plasma kallikrein) of 12.6 nM and an IC50 (human Factor XIa) of 7920 nM.
For `CC(c1cnc(N2C[C@H]3C[C@H]3C2=O)c(C(F)F)c1)n1cc(NC(=O)c2cncc(-c3c(C(F)F)ccc(Cl)c3F)n2)cn1` (single isomer, unassigned) [Example 78, 6-(3-Chloro-6-(difluoromethyl)-2-fluorophenyl)-N-(1-((R or S)-1-(5-(difluoromethyl)-6-((1R,5S)-2-oxo-3-azabicyclo[3.1.0]hexan-3-yl)pyridin-3-yl)ethyl)-1H-pyrazol-4-yl)pyrazine-2-carboxamide], the IC50 (Human plasma kallikrein) was 2.7 nM and the IC50 (human Factor XIa) was > 10000 nM.
In the case of `Cc1nc(N2C[C@H]3C[C@H]3C2=O)ncc1C(C)n1cc(NC(=O)c2nc(-c3c(C(F)F)ccc(Cl)c3F)cc(=O)n2C)cn1` (single isomer, unassigned) [Example 79, 4-(3-Chloro-6-(difluoromethyl)-2-fluorophenyl)-1-methyl-N-(1-((S or R)-1-(4-methyl-2-((1R,5S)-2-oxo-3-azabicyclo[3.1.0]hexan-3-yl)pyrimidin-5-yl)ethyl)-1H-pyrazol-4-yl)-6-oxo-1,6-dihydropyrimidine-2-carboxamide], the IC50 (Human plasma kallikrein) is reported as 0.5 nM and the IC50 (human Factor XIa) is reported as 57 nM.
`Cc1nc(N2C[C@H]3C[C@H]3C2=O)ncc1C(C)n1cc(NC(=O)c2nc(-c3c(C(F)F)ccc(Cl)c3F)cc(=O)n2C)cn1` (single isomer, unassigned) [Example 80, 4-(3-Chloro-6-(difluoromethyl)-2-fluorophenyl)-1-methyl-N-(1-((R or S)-1-(4-methyl-2-((1R,5S)-2-oxo-3-azabicyclo[3.1.0]hexan-3-yl)pyrimidin-5-yl)ethyl)-1H-pyrazol-4-yl)-6-oxo-1,6-dihydropyrimidine-2-carboxamide] gave an IC50 (Human plasma kallikrein) of 25.3 nM and an IC50 (human Factor XIa) of 284 nM.
For `Cc1ncc(-c2c(C(F)F)ccc(Cl)c2F)nc1C(=O)Nc1cnn(C(C)c2cnc(N3CCC(O)C3=O)nc2)c1` (single isomer, unassigned) [Example 87, 6-(3-Chloro-6-(difluoromethyl)-2-fluorophenyl)-N-(1-((S or R)-1-(2-((R or S)-3-hydroxy-2-oxopyrrolidin-1-yl)pyrimidin-5-yl)ethyl)-1H-pyrazol-4-yl)-3-methylpyrazine-2-carboxamide], the IC50 (Human plasma kallikrein) was 26.2 nM and the IC50 (human Factor XIa) was > 10000 nM.
For `CC(c1ccc(N2C[C@H]3C[C@H]3C2=O)nc1)n1cc(NC(=O)c2cncc(-c3c(C#N)ccc(Cl)c3F)n2)cn1` (single isomer, unassigned) [Example 89, 6-(3-Chloro-6-cyano-2-fluorophenyl)-N-(1-((S or R)-1-(6-((1R,5S)-2-oxo-3-azabicyclo[3.1.0]hexan-3-yl)pyridin-3-yl)ethyl)-1H-pyrazol-4-yl)pyrazine-2-carboxamide], the IC50 (Human plasma kallikrein) was 31.3 nM and the IC50 (human Factor XIa) was > 10000 nM.
With `CC(c1ccc(N2C[C@H]3C[C@H]3C2=O)nc1)n1cc(NC(=O)c2cncc(-c3c(C#N)ccc(Cl)c3F)n2)cn1` (single isomer, unassigned) [Example 90, 6-(3-Chloro-6-cyano-2-fluorophenyl)-N-(1-((R or S)-1-(6-((1R,SS)-2-oxo-3-azabicyclo[3.1.0]hexan-3-yl)pyridin-3-yl)ethyl)-1H-pyrazol-4-yl)pyrazine-2-carboxamide] the IC50 (Human plasma kallikrein) was 13.7 nM and the IC50 (human Factor XIa) was > 10000 nM.
With `Cc1cc(N2C[C@H]3C[C@H]3C2=O)ccc1C(C)n1cc(NC(=O)c2nc(-c3c(C(F)F)ccc(Cl)c3F)cnc2C)cn1` (single isomer, unassigned) [Example 97, 6-(3-Chloro-6-(difluoromethyl)-2-fluorophenyl)-3-methyl-N-(1-((S or R)-1-(2-methyl-4-((1R,5S)-2-oxo-3-azabicyclo[3.1.0]hexan-3-yl)phenyl)ethyl)-1H-pyrazol-4-yl)pyrazine-2-carboxamide] the IC50 (Human plasma kallikrein) was 1.3 nM and the IC50 (human Factor XIa) was > 10000 nM.
For `Cc1cc(N2C[C@H]3C[C@H]3C2=O)ccc1C(C)n1cc(NC(=O)c2cncc(-c3c(C(F)F)ccc(Cl)c3F)n2)cn1` (single isomer, unassigned) [Example 98, 6-(3-Chloro-6-(difluoromethyl)-2-fluorophenyl)-N-(1-((S or R)-1-(2-methyl-4-((1R,5S)-2-oxo-3-azabicyclo[3.1.0]hexan-3-yl)phenyl)ethyl)-1H-pyrazol-4-yl)pyrazine-2-carboxamide], the IC50 (Human plasma kallikrein) was 1.4 nM and the IC50 (human Factor XIa) was > 10000 nM.
`Cc1cc(N2C[C@H]3C[C@H]3C2=O)ccc1C(C)n1cc(NC(=O)c2cncc(-c3c(C(F)F)ccc(Cl)c3F)n2)cn1` (single isomer, unassigned) [Example 99, 6-(3-Chloro-6-(difluoromethyl)-2-fluorophenyl)-N-(1-((R or S)-1-(2-methyl-4-((1R,5S)-2-oxo-3-azabicyclo[3.1.0]hexan-3-yl)phenyl)ethyl)-1H-pyrazol-4-yl)pyrazine-2-carboxamide] showed an IC50 (Human plasma kallikrein) of 49.1 nM and an IC50 (human Factor XIa) of 2880 nM.
`Cc1nc(C(C)n2cc(NC(=O)c3nc(-c4c(C(F)F)ccc(Cl)c4F)cnc3C(F)F)cn2)cnc1N1C[C@H]2C[C@H]2C1=O` (single isomer, unassigned) [Example 100, 6-(3-Chloro-6-(difluoromethyl)-2-fluorophenyl)-3-(difluoromethyl)-N-(1-((S or R)-1-(6-methyl-5-((1R,5S)-2-oxo-3-azabicyclo[3.1.0]hexan-3-yl)pyrazin-2-yl)ethyl)-1H-pyrazol-4-yl)pyrazine-2-carboxamide] was tested, and the IC50 (Human plasma kallikrein) was 1.7 nM and the IC50 (human Factor XIa) was 2000 nM.
`Cc1nc(C(C)n2cc(NC(=O)c3nc(-c4c(C(F)F)ccc(Cl)c4F)cnc3C(F)F)cn2)cnc1N1C[C@H]2C[C@H]2C1=O` (single isomer, unassigned) [Example 101, 6-(3-Chloro-6-(difluoromethyl)-2-fluorophenyl)-3-(difluoromethyl)-N-(1-((R or S)-1-(6-methyl-5-((1R,5S)-2-oxo-3-azabicyclo[3.1.0]hexan-3-yl)pyrazin-2-yl)ethyl)-1H-pyrazol-4-yl)pyrazine-2-carboxamide] showed an IC50 (Human plasma kallikrein) of 0.6 nM and an IC50 (human Factor XIa) of 3950 nM.
With `Cc1cc(C(C)n2cc(NC(=O)c3nc(-c4c(C(F)F)ccc(Cl)c4F)cnc3C)cn2)nnc1N1C[C@H]2C[C@H]2C1=O` (single isomer, unassigned) [Example 102, 6-(3-Chloro-6-(difluoromethyl)-2-fluorophenyl)-3-methyl-N-(1-((S or R)-1-(5-methyl-6-((1R,5S)-2-oxo-3-azabicyclo[3.1.0]hexan-3-yl)pyridazin-3-yl)ethyl)-1H-pyrazol-4-yl)pyrazine-2-carboxamide] the IC50 (Human plasma kallikrein) was 0.7 nM and the IC50 (human Factor XIa) was 739 nM.
`Cc1cc(C(C)n2cc(NC(=O)c3nc(-c4c(C(F)F)ccc(Cl)c4F)cnc3C)cn2)nnc1N1C[C@H]2C[C@H]2C1=O` (single isomer, unassigned) [Example 103, 6-(3-Chloro-6-(difluoromethyl)-2-fluorophenyl)-3-methyl-N-(1-((R or S)-1-(5-methyl-6-((1R,5S)-2-oxo-3-azabicyclo[3.1.0]hexan-3-yl)pyridazin-3-yl)ethyl)-1H-pyrazol-4-yl)pyrazine-2-carboxamide] was tested, and the IC50 (Human plasma kallikrein) was 1.8 nM and the IC50 (human Factor XIa) was 445 nM.
For `Cc1c(C(C)n2cc(NC(=O)c3cncc(-c4c(OC(F)F)ccc(Cl)c4F)n3)cn2)cnc(N2C[C@H]3C[C@H]3C2=O)c1C` (single isomer, unassigned) [Example 104, 6-(3-Chloro-6-(difluoromethoxy)-2-fluorophenyl)-N-(1-((S or R)-1-(4,5-dimethyl-6-((1R,5S)-2-oxo-3-azabicyclo[3.1.0]hexan-3-yl)pyridin-3-yl)ethyl)-1H-pyrazol-4-yl)pyrazine-2-carboxamide], the IC50 (Human plasma kallikrein) was 1.2 nM and the IC50 (human Factor XIa) was 420 nM.
`Cc1c(C(C)n2cc(NC(=O)c3cncc(-c4c(OC(F)F)ccc(Cl)c4F)n3)cn2)cnc(N2C[C@H]3C[C@H]3C2=O)c1C` (single isomer, unassigned) [Example 105, 6-(3-Chloro-6-(difluoromethoxy)-2-fluorophenyl)-N-(1-((R or S)-1-(4,5-dimethyl-6-((1R,5S)-2-oxo-3-azabicyclo[3.1.0]hexan-3-yl)pyridin-3-yl)ethyl)-1H-pyrazol-4-yl)pyrazine-2-carboxamide] gave an IC50 (Human plasma kallikrein) of 0.6 nM and an IC50 (human Factor XIa) of 101 nM.
